Measured values reported in patent US9090628B2, “Benzoxazepin compounds selective for PI3K P110 delta and methods of use” (GENENTECH, INC., priority 2011, dated 2015).
pIC50: −log10 of the molar value.

Assays:
p110 alpha = p110 alpha (Homo sapiens (Human), UniProt P42336); assay: PI3K isoform inhibition assay, p110 alpha (for alpha/delta selectivity); settings: ratio of biochemical IC50 values
In short: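 Fluorescence polarization displacement of a fluorescent PIP3 probe from GRP-1 detector by PI3K-formed PIP3; p110α/p85α at 40 ng/mL with 10 μM PIP2 substrate.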

p110 delta = p110 delta (Homo sapiens (Human), UniProt O00329); assay: PI3K isoform inhibition assay, p110 delta (fluorescence polarization displacement); type: biochemical
Chain of p110 delta (O00329 whole entry, canonical isoform): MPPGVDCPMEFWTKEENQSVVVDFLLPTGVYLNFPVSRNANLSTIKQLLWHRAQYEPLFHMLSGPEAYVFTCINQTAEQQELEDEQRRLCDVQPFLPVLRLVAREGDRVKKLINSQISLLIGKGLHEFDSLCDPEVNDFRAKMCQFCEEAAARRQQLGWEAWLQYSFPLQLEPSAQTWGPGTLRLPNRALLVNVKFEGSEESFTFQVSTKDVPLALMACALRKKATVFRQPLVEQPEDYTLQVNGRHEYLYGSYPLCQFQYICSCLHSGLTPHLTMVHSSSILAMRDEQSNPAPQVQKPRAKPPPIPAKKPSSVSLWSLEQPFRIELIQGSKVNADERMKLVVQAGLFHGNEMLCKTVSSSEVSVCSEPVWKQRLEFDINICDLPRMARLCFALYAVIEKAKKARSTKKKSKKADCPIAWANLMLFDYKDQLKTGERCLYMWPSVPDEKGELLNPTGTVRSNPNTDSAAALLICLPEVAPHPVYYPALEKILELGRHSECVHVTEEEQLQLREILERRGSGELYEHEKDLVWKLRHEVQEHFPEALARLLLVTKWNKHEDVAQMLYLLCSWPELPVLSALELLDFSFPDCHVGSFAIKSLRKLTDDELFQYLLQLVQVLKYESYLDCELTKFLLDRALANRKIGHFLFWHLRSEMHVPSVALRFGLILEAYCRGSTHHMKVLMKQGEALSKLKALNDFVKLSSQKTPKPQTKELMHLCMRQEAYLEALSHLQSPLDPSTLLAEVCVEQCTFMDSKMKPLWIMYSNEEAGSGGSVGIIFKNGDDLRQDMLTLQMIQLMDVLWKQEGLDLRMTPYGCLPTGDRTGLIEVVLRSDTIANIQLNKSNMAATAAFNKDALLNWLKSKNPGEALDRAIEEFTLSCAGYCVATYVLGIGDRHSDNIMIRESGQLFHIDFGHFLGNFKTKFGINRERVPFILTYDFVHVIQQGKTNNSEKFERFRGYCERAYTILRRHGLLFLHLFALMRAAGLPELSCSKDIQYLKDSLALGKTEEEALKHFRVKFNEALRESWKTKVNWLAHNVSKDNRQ
Chain of p110 delta (P27986 whole entry partner, canonical isoform): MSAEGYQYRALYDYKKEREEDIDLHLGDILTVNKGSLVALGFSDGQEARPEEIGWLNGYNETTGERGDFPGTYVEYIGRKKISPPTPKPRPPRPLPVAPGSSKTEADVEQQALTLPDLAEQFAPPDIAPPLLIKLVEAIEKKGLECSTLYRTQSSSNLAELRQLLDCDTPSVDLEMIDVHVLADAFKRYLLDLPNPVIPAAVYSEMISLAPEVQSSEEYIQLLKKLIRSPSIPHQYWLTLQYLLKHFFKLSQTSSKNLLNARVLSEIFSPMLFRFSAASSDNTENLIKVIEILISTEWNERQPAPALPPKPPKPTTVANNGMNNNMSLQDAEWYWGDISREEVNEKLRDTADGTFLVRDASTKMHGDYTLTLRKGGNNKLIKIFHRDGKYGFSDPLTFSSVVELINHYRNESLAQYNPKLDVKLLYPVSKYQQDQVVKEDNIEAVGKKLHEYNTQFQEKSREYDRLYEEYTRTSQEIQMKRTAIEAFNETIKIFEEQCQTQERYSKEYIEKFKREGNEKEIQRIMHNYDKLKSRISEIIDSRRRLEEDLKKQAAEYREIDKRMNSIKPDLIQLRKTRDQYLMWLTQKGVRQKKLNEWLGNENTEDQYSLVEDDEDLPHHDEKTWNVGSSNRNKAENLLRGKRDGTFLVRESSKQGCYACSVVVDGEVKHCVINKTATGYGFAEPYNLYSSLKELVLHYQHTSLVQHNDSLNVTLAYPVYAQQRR

[1] = system: CD69 production by B lymphocytes in human whole blood activated with anti-human IgM; assay: CD69 Whole Blood Assay; type: cell-based; settings: Lymphocyte, anti-IgM stimulated, CD69 positive of CD20 positive cells
Description: There is good evidence that B-cells play a key role in the pathogenesis of autoimmune and/or inflammatory disease. Protein-based therapeutics that deplete B cells such as Rituxan are effective against autoantibody-driven inflammatory diseases such as rheumatoid arthritis (Rastetter et al. (2004) Annu Rev Med 55:477). CD69 is the early activation marker in leukocytes including T cells, thymocytes, B cells, NK cells, neutrophils, and eosinophils. The CD69 human whole blood assay (Example 903) determines the ability of compounds to inhibit the production of CD69 by B lymphocytes in human whole blood activated by crosslinking surface IgM with goat F(ab′)2 anti-human IgM.
Human blood is obtained from healthy volunteers, with the following restrictions: 1 week drug-free, non-smokers. Blood (approximately 20 mls to test 8 compounds) is collected by venipuncture into Vacutainer tubes with sodium heparin.
Solutions of Formula I compounds at 1000 or 2000 μM in PBS (20×), are diluted by three-fold serial dilutions in 10% DMSO in PBS for a nine point dose-response curve. An aliquot of 5.5 μl of each compound is added in duplicate to a 2 ml 96-well plate; 5.5 μl of 10% DMSO in PBS is added as control and no-stimulus wells. Human whole blood—HWB (100 μl) is added to each well. After mixing the plates are incubated at 37° C., 5% CO2, 100% humidity for 30 minutes. Goat F(ab′)2 anti-human IgM (10 μl of a 500 μg/ml solution, 50 μg/ml final) is added to each well (except the no-stimulus wells) with mixing and the plates are incubated for an additional 20 hours. At the end of the 20 hour incubation, samples are incubated with fluorescent labeled antibodies for 30 minutes, at 37° C., 5% CO2, 100% humidity. Include induced control, unstained and single stains for compensation adjustments and initial voltage settings. Samples are then lysed with Pharmingen Lyse according to the manufacturer's instructions. Samples are then transferred to a 96 well plate suitable to be run on the AMS 96 well system on the BD Calibur FACs machine. Data acquired and Mean Fluorescence Intensity values were obtained using Cell Quest Software. Results are initially analyzed by FACS analysis software (Flow Jo).

Chain of p110 alpha (P42336 whole entry, canonical isoform): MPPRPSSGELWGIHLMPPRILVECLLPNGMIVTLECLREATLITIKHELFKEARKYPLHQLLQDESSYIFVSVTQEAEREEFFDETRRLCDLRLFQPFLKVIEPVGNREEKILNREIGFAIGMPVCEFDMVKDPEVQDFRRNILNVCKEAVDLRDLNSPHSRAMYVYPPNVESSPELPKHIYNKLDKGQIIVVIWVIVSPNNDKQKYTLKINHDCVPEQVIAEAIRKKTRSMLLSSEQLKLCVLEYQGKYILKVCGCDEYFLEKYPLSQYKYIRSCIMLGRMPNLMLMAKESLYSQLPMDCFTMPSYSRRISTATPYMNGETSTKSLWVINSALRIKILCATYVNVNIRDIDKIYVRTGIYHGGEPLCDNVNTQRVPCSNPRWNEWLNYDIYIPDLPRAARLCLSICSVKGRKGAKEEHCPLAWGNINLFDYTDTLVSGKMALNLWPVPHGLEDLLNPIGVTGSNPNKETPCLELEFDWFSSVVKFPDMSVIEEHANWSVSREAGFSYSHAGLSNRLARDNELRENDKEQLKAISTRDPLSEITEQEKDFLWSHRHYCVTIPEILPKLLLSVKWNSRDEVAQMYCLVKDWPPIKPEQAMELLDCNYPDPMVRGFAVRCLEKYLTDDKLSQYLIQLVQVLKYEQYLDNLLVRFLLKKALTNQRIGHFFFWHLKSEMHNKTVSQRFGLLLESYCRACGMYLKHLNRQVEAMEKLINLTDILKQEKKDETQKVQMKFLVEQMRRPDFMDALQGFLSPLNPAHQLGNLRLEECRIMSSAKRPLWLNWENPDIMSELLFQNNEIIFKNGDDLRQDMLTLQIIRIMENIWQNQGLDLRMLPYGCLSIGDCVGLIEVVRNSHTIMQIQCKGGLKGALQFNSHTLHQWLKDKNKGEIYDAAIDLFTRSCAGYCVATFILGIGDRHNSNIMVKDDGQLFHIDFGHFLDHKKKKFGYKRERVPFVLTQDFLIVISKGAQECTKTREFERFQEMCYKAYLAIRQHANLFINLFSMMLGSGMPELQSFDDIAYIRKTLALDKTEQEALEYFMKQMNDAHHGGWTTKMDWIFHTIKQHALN
Chain of p110 alpha (P27986 whole entry partner, canonical isoform): as the sequence (P27986 whole entry partner, canonical isoform) above

| IC50 p110 alpha/IC50 p110 delta (p110 alpha) | pIC50 (p110 delta) | pIC50 [1] | SMILES |
| --- | --- | --- | --- |
| 14.4 | 9.35 | 7.24 | CC(Oc1ccc2c(c1)OCCn1cc(-c3ncnn3C(C)C)nc1-2)C1CCN(C(C)C)CC1 (centres unmarked) [Example 143, 2-(1-isopropyl-1H-1,2,4-triazol-5-yl)-9-(1-(1-isopropylpiperidin-4-yl)ethoxy)-5,6-dihydrobenzo[f]imidazo[1,2-d][1,4]oxazepine] |
|  |  | 7.34 | Cc1nc(-c2cn3c(n2)-c2ccc(N4CCC[C@@H]4C4CCN(C(C)C)CC4)cc2OCC3)n(C(C)C)n1 [Example 263, (R)-2-(1-isopropyl-3-methyl-1H-1,2,4-triazol-5-yl)-9-(2-(1-isopropylpiperidin-4-yl)pyrrolidin-1-yl)-5,6-dihydrobenzo[f]imidazo[1,2-d][1,4]oxazepine] |
| 30.6 | 8.25 |  | Cc1nc(-c2cn3c(n2)-c2cc(C(=O)N4CCN(C(C)(C)CO)CC4)c(F)cc2OCC3)n(C(C)C)n1 [Example 281, [9-fluoro-2-(2-isopropyl-5-methyl-1,2,4-triazol-3-yl)-5,6-dihydroimidazo[1,2-d][1,4]benzoxazepin-10-yl]-[4-(2-hydroxy-1,1-dimethyl-ethyl)piperazin-1-yl]methanone] |
| 14.5 | 9.18 |  | Cc1nc(-c2cn3c(n2)-c2cc(-c4cnn(C)c4C4CC(N(C)C)CCO4)c(F)cc2OCC3)n(C(C)C)n1 (centres unmarked) [Example 354, 2-[4-[9-fluoro-2-(2-isopropyl-5-methyl-1,2,4-triazol-3-yl)-5,6-dihydroimidazo[1,2-d][1,4]benzoxazepin-10-yl]-2-methyl-pyrazol-3-yl]-N,N-dimethyl-tetrahydropyran-4-amine] |
| 52.9 | 9.38 |  | Cc1nc(-c2cn3c(n2)-c2ccc(N4CCC[C@@H]4CN4CCCC4)cc2OCC3)n(C(C)C)n1 [Example 326, (R)-2-(1-isopropyl-3-methyl-1H-1,2,4-triazol-5-yl)-9-(2-(pyrrolidin-1-ylmethyl)pyrrolidin-1-yl)-5,6-dihydrobenzo[f]imidazo[1,2-d][1,4]oxazepine] |
| 54.1 | 9.43 |  | Cc1nc(-c2cn3c(n2)-c2cc(-c4cnn(C)c4C4CCCN(C(C)C)C4)c(F)cc2OCC3)n(C(C)C)n1 (centres unmarked) [Example 359, 9-fluoro-2-(2-isopropyl-5-methyl-1,2,4-triazol-3-yl)-10-[5-(1-isopropyl-3-piperidyl)-1-methyl-pyrazol-4-yl]-5,6-dihydroimidazo[1,2-d][1,4]benzoxazepine] |
| 40.4 | 8.51 |  | Cc1nc(-c2cn3c(n2)-c2ccc(-n4ccnc4C4CCCN(C(C)C)C4)cc2OCC3)n(C(C)C)n1 (centres unmarked) [Example 369, 2-(2-isopropyl-5-methyl-1,2,4-triazol-3-yl)-9-[2-(1-isopropyl-3-piperidyl)imidazol-1-yl]-5,6-dihydroimidazo[1,2-d][1,4]benzoxazepine] |

Second part, the molecule before the results:

| SMILES | IC50 p110 alpha/IC50 p110 delta (p110 alpha) | pIC50 (p110 delta) | pIC50 [1] |
| --- | --- | --- | --- |
| CC(C)n1ncnc1-c1cn2c(n1)-c1cc(CN3CCN(C(C)(C)C)CC3)ccc1OCC2 [Example 108, 10-((4-tert-butylpiperazin-1-yl)methyl)-2-(1-isopropyl-1H-1,2,4-triazol-5-yl)-5,6-dihydrobenzo[f]imidazo[1,2-d][1,4]oxazepine] | 21.8 | 8.61 | 7.39 |
| CC(C)n1ncnc1-c1cn2c(n1)-c1cc(C(=O)N3CCN(C(C)(C)C)CC3)ccc1OCC2 [Example 110, (4-tert-butylpiperazin-1-yl)(2-(1-isopropyl-1H-1,2,4-triazol-5-yl)-5,6-dihydrobenzo[f]imidazo[1,2-d][1,4]oxazepin-10-yl)methanone] | 27.1 | 9.04 | 6.89 |
| Cc1nc(-c2cn3c(n2)-c2ccc(-c4cnn(C)c4C4CC(N(C)C(C)C)CCO4)cc2OCC3)n(C(C)C)n1 (centres unmarked) [Example 335, N-isopropyl-2-[4-[2-(2-isopropyl-5-methyl-1,2,4-triazol-3-yl)-5,6-dihydroimidazo[1,2-d][1,4]benzoxazepin-9-yl]-2-methyl-pyrazol-3-yl]-N-methyl-tetrahydropyran-4-amine] | 96.5 | 8.64 |  |
| Cc1nc(-c2cn3c(n2)-c2ccc(N4CCCC4C4CCCCN4C)cc2OCC3)n(C(C)C)n1 (centres unmarked) [Example 323, 2-(2-isopropyl-5-methyl-1,2,4-triazol-3-yl)-9-[2-(1-methyl-2-piperidyl)pyrrolidin-1-yl]-5,6-dihydroimidazo[1,2-d][1,4]benzoxazepine] | 11.7 | 8.71 |  |
| CC(C)n1ncnc1-c1cn2c(n1)-c1cnc(N3CCCC3C3CCN(C)CC3)cc1OCC2 (centres unmarked) [Example 115, 2-(1-isopropyl-1H-1,2,4-triazol-5-yl)-9-(2-(1-methylpiperidin-4-yl)pyrrolidin-1-yl)-5,6-dihydroimidazo[1,2-d]pyrido[3,4-f][1,4]oxazepine] |  |  | 7.42 |
| Cc1nc(-c2cn3c(n2)-c2ccc(-c4cnn(C)c4C4CCCN(C(C)(C)CO)C4)cc2OCC3)n(C(C)C)n1 (centres unmarked) [Example 248, 2-(3-(4-(2-(1-isopropyl-3-methyl-1H-1,2,4-triazol-5-yl)-5,6-dihydrobenzo[f]imidazo[1,2-d][1,4]oxazepin-9-yl)-1-methyl-1H-pyrazol-5-yl)piperidin-1-yl)-2-methylpropan-1-ol] |  |  | 7.30 |
| Cc1nc(-c2cn3c(n2)-c2ccc(N4CCCC45CCCN(C)C5)cc2OCC3)n(C(C)C)n1 (centres unmarked) [Example 314, 2-(2-isopropyl-5-methyl-1,2,4-triazol-3-yl)-9-(7-methyl-1,7-diazaspiro[4.5]decan-1-yl)-5,6-dihydroimidazo[1,2-d][1,4]benzoxazepine] | 50.1 | 9.47 |  |
| Cc1nc(-c2cn3c(n2)-c2cc([C@@H](C)N4CCN(C(C)(C)CO)CC4)ncc2OCC3)n(C(C)C)n1 [Example 365, (R)-2-(4-(1-(2-(1-isopropyl-3-methyl-1H-1,2,4-triazol-5-yl)-5,6-dihydroimidazo[1,2-d]pyrido[4,3-f][1,4]oxazepin-10-yl)ethyl)piperazin-1-yl)-2-methylpropan-1-ol] | 83.2 | 8.58 |  |
| Cc1nc(-c2cn3c(n2)-c2ccc(-c4cnc(C)n4C4CCCN(C(C)C)C4)cc2OCC3)n(C(C)C)n1 (centres unmarked) [Example 317, 2-(2-isopropyl-5-methyl-1,2,4-triazol-3-yl)-9-[3-(1-isopropyl-3-piperidyl)-2-methyl-imidazol-4-yl]-5,6-dihydroimidazo[1,2-d][1,4]benzoxazepine] | 22.3 | 8.19 |  |
| Cc1nc(-c2cn3c(n2)-c2cc([C@@H](C)N4CCN(C(C)C)CC4)c(C)cc2OCC3)n(C(C)C)n1 [Example 331, (R)-2-(1-isopropyl-3-methyl-1H-1,2,4-triazol-5-yl)-10-(1-(4-isopropylpiperazin-1-yl)ethyl)-9-methyl-5,6-dihydrobenzo[f]imidazo[1,2-d][1,4]oxazepine] | 104 | 9.06 |  |
| CC(C)n1ncnc1-c1cn2c(n1)-c1ccc(-c3ccnn3C3CCN(C)CC3)cc1OCC2 [Example 160, 2-(1-isopropyl-1H-1,2,4-triazol-5-yl)-9-(1-(1-methylpiperidin-4-yl)-1H-pyrazol-5-yl)-5,6-dihydrobenzo[f]imidazo[1,2-d][1,4]oxazepine] |  |  | 7.34 |
